Reference: patent US6967102B1, “Nitric oxide manipulation of muscle satellite cell activation” (University of Manitoba, priority 1999, dated 2005)
Entries after “also recorded” stand apart in the source; their conditions may differ.

Key:
satellite cells [1] = experiment: Cell yield time course 0–30 min after crush injury of right tibialis anterior, mdx mice; assay type: in vivo; conditions: L-NAME
NOS = molecular target: T1, NOS (Mus musculus, UniProt Q9Z0J4); experiment: NADPH-diaphorase enzyme histochemistry of NOS activity on muscle sections; assay type: in vivo, mice
T1 construct: confirmed using NADPH-diaphorase enzyme histochemistry on frozen sections; from tissue; host or cells: frozen sections of tibialis anterior muscle from normal mice pretreated ip with saline or L-NAME
T1 sequence (Q9Z0J4 1-1463 isoform Q9Z0J4-5): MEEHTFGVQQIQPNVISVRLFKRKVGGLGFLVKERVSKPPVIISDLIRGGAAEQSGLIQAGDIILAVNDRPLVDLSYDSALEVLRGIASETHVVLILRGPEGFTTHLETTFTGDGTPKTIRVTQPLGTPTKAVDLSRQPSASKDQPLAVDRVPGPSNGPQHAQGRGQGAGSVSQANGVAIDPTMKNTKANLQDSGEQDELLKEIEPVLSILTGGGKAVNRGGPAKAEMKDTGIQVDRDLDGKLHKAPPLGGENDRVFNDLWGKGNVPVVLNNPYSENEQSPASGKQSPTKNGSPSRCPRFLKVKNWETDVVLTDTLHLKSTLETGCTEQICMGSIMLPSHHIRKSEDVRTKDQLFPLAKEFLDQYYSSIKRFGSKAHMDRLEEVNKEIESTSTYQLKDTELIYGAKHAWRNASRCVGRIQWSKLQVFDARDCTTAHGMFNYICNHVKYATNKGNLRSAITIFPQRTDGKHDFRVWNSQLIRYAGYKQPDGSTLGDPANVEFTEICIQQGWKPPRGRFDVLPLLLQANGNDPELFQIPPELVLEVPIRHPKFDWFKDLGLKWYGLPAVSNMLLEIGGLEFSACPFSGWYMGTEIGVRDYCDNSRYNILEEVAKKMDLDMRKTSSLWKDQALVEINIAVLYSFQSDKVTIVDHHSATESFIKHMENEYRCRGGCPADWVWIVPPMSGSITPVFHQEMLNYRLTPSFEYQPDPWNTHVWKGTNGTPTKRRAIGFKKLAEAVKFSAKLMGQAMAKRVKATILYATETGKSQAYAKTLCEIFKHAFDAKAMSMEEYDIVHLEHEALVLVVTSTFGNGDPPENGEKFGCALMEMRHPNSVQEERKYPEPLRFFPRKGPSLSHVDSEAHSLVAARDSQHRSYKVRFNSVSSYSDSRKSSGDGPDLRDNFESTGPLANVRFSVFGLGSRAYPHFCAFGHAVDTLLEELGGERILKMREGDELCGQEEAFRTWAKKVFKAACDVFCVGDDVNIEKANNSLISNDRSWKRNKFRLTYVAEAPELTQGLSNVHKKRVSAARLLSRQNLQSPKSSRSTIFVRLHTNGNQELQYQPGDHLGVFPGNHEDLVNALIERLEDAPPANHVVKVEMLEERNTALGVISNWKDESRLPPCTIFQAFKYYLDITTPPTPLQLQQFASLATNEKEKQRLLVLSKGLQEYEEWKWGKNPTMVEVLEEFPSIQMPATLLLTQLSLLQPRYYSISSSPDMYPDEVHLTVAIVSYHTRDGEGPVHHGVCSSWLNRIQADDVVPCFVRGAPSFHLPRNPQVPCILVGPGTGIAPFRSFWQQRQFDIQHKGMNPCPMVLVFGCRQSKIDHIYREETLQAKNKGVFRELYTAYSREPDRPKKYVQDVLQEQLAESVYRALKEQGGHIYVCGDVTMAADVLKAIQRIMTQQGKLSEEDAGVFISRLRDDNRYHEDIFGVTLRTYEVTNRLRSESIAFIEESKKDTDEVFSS
Procedure: Sections ([…]) were collected on glass slides and stained with toluidine blue. The inhibition of NOS enzyme activity by L-NAME treatment 30 min. before crush was confirmed using NADPH-diaphorase enzyme histochemistry on frozen sections with jejunal epithelium as the positive control, according to Beesley (1995) Histochem. J. 27: 757–769.
i) satellite cells are identified and examined for hypertrophy and position using immunostaining for two c-met receptor, m-cadherin, neural cell adhesion molecule (N-CAM or leu19) and CD34, as markers of muscle satellite precursor cells (Irintchev A, Zeschnigk M. Starzinski-Powitz A, and Wernig A. (1994). Dev. […] In other sections c-met and HGF colocalization are used to assess activation (after (Tatsumi R, Anderson J E, Nevoret C J, Halevy 0, and Allen R E. (1998). Dev. Biol. 194:114–128). Routine fluorescent or peroxidase-conjugated secondary antibodies are used to visualize labelled satellite cells. • ii) NOS activity are determined to assess the effect of treatments that manipulate NOS activity. […] This method is modified to study homogenized tissue NOS activity. • iii) NOS expression is determined using in situ hybridisation (and Northern blotting) with a riboprobe specific for NOS-Iμ (the muscle isoform of NOS-I), made with custom primers (Kobzik L, Reid M B, Bredt D S, and Stamler J S. (1994). […]

[2] = Muscle weight to body weight (edema) and haemorrhage after crush injury, normal mice; assay type: in vivo, normal mice (C57BL/6); conditions: ip treatment 30 min before crush; 0–30 min after injury
satellite cells [3] = experiment: Cell yield time course 0–30 min after crush injury of right tibialis anterior, normal mice; assay type: in vivo, normal mice (C57BL/6)
satellite cells [4] = experiment: Satellite cell morphometry from electron micrographs 0 and 10 min after crush injury; assay type: in vivo, mice; conditions: L-NAME pretreatment
From the text: Measurements of cell area (size increases in activated cells), nucleus-to-cytoplasm ratio (a measure that decreases with activation), and cytoplasmic density (a measure that decreases in activation with the increase in cell size, despite the hypertrophy of cytoplasmic organelles) were made from electron micrographs without knowledge of their source. Two investigators had to agree on the satellite cell identification before cells were included in the study, with the stipulation that cell profiles had complete nuclei and cell membrane visible in a photograph or montage (all photographs taken at identical magnification of 10,000×) Satellite cells originated from the central crush-injured region of muscles collected from each mouse (n=4). Cytoplasmic density was determined as [the integrated cell density minus the integrated nuclear density] divided by [cell area minus nuclear area]. A computer was used to scan micrograph negatives, and digital images were analyzed using the program NIH Image for morphometry.

satellite cells [5] = experiment: Histology and immunostaining (m-cadherin, c-met, HGF/SF) of satellite cells 0 and 10 min after crush; assay type: in vivo, normal mice
Procedure: A separate experiment was conducted to study the immediate effects of injury on muscle and satellite cell histology. […] Muscles were bisected longitudinally, and half of each muscle was frozen in OCT. for cryosectioning. Sections were stained with H&E or immunostained using primary antibodies to c-met (1:400), HGF/SF (1:1000, R&D Systems) or developmental myosin heavy chain ([…], 1:250, Novocastra Laboratories) as reported ([…] et al. (1996) Exp. Cell Res. 22: 214-222; Tatsumi et al. (1998) Dev. Biol. 194: 114-128) or against m-cadherin (1:50, Santa Cruz). […] Sections and cultures were viewed on an Olympus microscope equipped with epifluorescence and phase contrast optics. […] In the case of muscle regenerating from crush injury, observations (without knowledge of treatment group) were made in pre-set fields of muscle from the central crush region, the adjacent regenerating region and the surviving region as reported (McIntosh et al. (1994) Muscle Nerve 17: 444-453). Representative photographs of muscle fibers and satellite cells were taken on over 700 frames of ASA 400 Fuji […] slide film. Where stated, the number of satellite cells observed in each category, group or condition was estimated from photographed slides rather than from direct counts made during observations under oil immersion. Selected slides were scanned (Olympus Film Scanner ES-10, Olympus Optical Co., Tokyo), formatted into plates with little or no enlargement and printed (Freehand 8.0, Macromedia Inc.).

COC(=O)[C@@H](N)CCCNC(=N)N[N+](=O)[O-] [L-NAME, Nω-nitro-L-arginine methyl ester]
increase of LTA cell yield at 10 min (satellite cells [1]): 50%
RSOL cell yield (satellite cells [1]; 0–30 min): did not change over time
RTA cell yield time course (satellite cells [1]; 0–30 min): rose slowly over the 30 min. time course; also recorded: decreased and further delayed the peak of myogenic cells; also recorded: prevented the increased RTA yield at 10 min
duration of decreased NOS activity (NOS; L-NAME, after ip injection): 40 min
NOS activity by NADPH-diaphorase staining (NOS; pre-treatment with L-NAME, muscle sections): inhibited NOS activity
muscle weight profile (RTA relative to LTA; muscle weight as proportion of body weight) [2]: RTA weight increased only at 10 min. relative to LTA
time of delayed peak RTA yield after injury (satellite cells [3]; L-NAME 3 mg/kg, one experiment): < 10 min
LTA cell yield at 10 min relative to 0 min (satellite cells [3]; L-NAME 7.5 mg/kg): 2 fold
RTA cell yield at 10 min relative to 0 min (satellite cells [3]; L-NAME 7.5 mg/kg): 3.5 fold
time after injury until which the increased RTA cell yield is delayed (satellite cells [3]; L-NAME 7.5 mg/kg ip 30 min before crush): 10 min
initial injury-induced rise in RTA cell yield (satellite cells [3]; L-NAME 7.5 mg/kg ip 30 min before crush, 0 min): preventing the initial injury-induced rise in RTA yield; also recorded: absent after L-NAME
LTA cell yield lower than in saline-treated mice (satellite cells [3]; L-NAME 7.5 mg/kg, 0 min): 15%
RSOL cell yield lower than in saline-treated mice (satellite cells [3]; L-NAME 7.5 mg/kg, 0 min): 50%
fewer cells isolated from RTA than LTA (satellite cells [3]; L-NAME 7.5 mg/kg, 0 min): 30%
time of delayed peak RTA yield after injury (satellite cells [3]; L-NAME 10 or 12.5 mg/kg, one experiment at each dose): > 10 min
peak cell yield in RTA (satellite cells [3]; L-NAME ip 30 min before crush): delayed (not reduced)
peak in cell yield from LTA (at 10 min.) (satellite cells [3]; L-NAME ip 30 min before crush): reduced but not delayed; also recorded: reduced by L-NAME treatment
cell area (satellite cells [4]; 0 minutes post-crush, n = 8): 9.0 ± 1.6 arbitrary units
cytoplasmic density (satellite cells [4]; 0 minutes post-crush, n = 8): 91.7 ± 5.8 arbitrary units
nucleus:cytoplasm ratio (satellite cells [4]; 0 minutes post-crush, n = 8): 70.2 ± 1.7%
satellite cell activation state by morphologic criteria (satellite cells [4]; 0–10 minutes post-crush): maintained quiescence over 10 minutes
cell area (satellite cells [4]; 10 minutes post-crush, n = 3): 6.3 ± 1.1 arbitrary units
cytoplasmic density (satellite cells [4]; 10 minutes post-crush, n = 3): 66.2 ± 2.1 arbitrary units
nucleus:cytoplasm ratio (satellite cells [4]; 10 minutes post-crush, n = 3): 52.0 ± 8.7 %
normal rapid changes in satellite cell size and position (satellite cells [5]; L-NAME treatment 30 min before crush): consistently delayed and restricted
satellite cells thin and attenuated in both RTA and LTA (satellite cells [5]; L-NAME-treated mice, 0 min, more than 70 satellite cells identified): 85%
satellite cells with c-met and HGF/SF co-localized (satellite cells [5]; L-NAME-treated mice, 10 min after injury): at least 70%
